Data taken from patent US20100144712A1 (priority 2007, published 2010).
≈ marks a conversion by molar mass, not a printed value.

Legend:
Format in all cases: cell-based
[1] = tested on: Aspergillus fumigatus (ATCC 16424); assay: In vitro antifungal activity (MIC80), Aspergillus fumigatus ATCC 16424; details: Aspergillus fumigatus, ATCC16424, Table 2, ATCC 16424; read-out: Minimal inhibitory concentration (MIC80)
Procedure: (§1) In vitro antifungal activities of the inventive antifungal compounds were evaluated using test strains including Candida albican (ATCC 90873, 204276, 62342, 64124, 64550, 96901, MYA-573, MYA-574, MYA-575, MYA-576, MYA-1003) and Aspergillus fumigatus (ATCC 16424). Test samples and positive control samples were prepared by dissolving the inventive compounds and comparative compounds, i.e., amphotericin B, fluconazole and itraconazole, in DMSO, respectively, and each successively diluted with medium to obtain test and positive control solutions having test compound concentrations of 0.125 μg/ml to a maximum concentration not generating turbidity. Minimal inhibitory concentration (MIC80) of each compound was determined as the lowest concentration of the test compounds required to reduce growth by 80% relative to a control strain not treated.
(§2) 1) Test strain: Candida albican ATCC 90873, 204276, 62342, 64124, 64550, 96901, MYA-573, MYA-574, MYA-575, MYA-576, MYA-1003, and Aspergillus fumigatus ATCC 16424 were commercially obtained from The American Type Culture Collection (ATCC) and subcultured in CHEMON Co. Ltd. (amphotericin B was commercially purchased from Sigma, and fluconazole and itraconazole were prepared according to methods described in British Patent No. 2,099,818; and U.S. Pat. No. 4,267,179, respectively).
(§3) 2) Medium and culture condition: Candida albican was cultured in Sabourad Dextrose Agar, YM Agar or Potato Dextrose Agar according to ATCC information at a temperature of 37° C., 35° C., 30° C. or 25° C. Aspergillus fumigatus was cultured in Malt Extract Agar or Potato Dextrose Agar at a temperature ranging from 24 to 27° C.
(§4) 3) Preparation of test samples: the inventive compounds and comparative compounds were each diluted with DMSO to obtain 1 to 2 ml of a test sample in a concentration of 100-folds of the determining maximum concentration (256 μg/ml).
(§5) The test samples were each successively diluted with RPMI 1640 to obtain test solutions having concentrations of […] in a 12×75 mm sterilized disposable culture tube. The final concentration of DMSO was adjusted to […] (v/v).
(§6) 5) Preparation of strain solution and inoculation
(§7) Candida albican strains were each subcultured in Sabourad Dextrose Agar, YM Agar or Potato Dextrose Agar medium at 35° C. for 2˜3 days. In the case of yeasts, a single colony was taken from prominent colonies and suspended in 0.85% sterile physiological saline solution and the turbidity of the suspension was adjusted to 80˜82% at 530 nm, and then diluted 50-fold with RPMI 1640 medium to 1.0×10^3˜5.0×10^3 CFU/ml. The turbidity of fungi was adjusted to 80˜82% and the suspension was diluted 50-fold to […]. Aspergillus fumigatus strains were subcultured in Malt Extract Agar for 7˜10 days, and a single colony was taken from prominent colonies and suspended in 0.85% sterile physiological saline solution and the suspension was adjusted to 0.108 at 530 nm, and then diluted 1000-fold with RPMI 1640 medium to 0.4×10^2˜5×10^4 CFU/ml. The turbidity of fungi was adjusted to 80˜82% and the suspension was diluted 50-fold to 0.4102˜0.5104 CFU/ml.
(§8) The strain solutions thus obtained were each seeded into a sterilized 96-well microplate, 0.1 ml of each test solution were added thereto, and […] of alamarblue was treated to each well (Biosource, #DAL1100). This procedure was repeated 2 times.
(§9) Minimal inhibitory concentration (MIC80) of each compound was determined as the lowest concentration of the test compounds required to reduce growth by 80% relative to a control strain not treated.
MIC80 of each of the compounds of which antifungal activities can be confirmed by Table 2 was determined using other test strains, i.e., Aspergillus fumigatus ATCC 16424 and MYA-1163, Aspergillus terreus ATCC 28301, Aspergillus flavus ATCC MYA-1004, and Aspergillus niger ATCC 9142.

[2] = tested on: Candida albican ATCC MYA-574; assay: In vitro antifungal activity (MIC80), Candida albican ATCC MYA-574; details: Candida; Table 2, MYA 574; read-out: Minimal inhibitory concentration (MIC80)
How it was run: (§10)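 Broth dilution in RPMI 1640 with 2% (v/v) final DMSO, test range 0.25 to 256 […]. Yeast inoculum 1.0×10^3–5.0×10^3 CFU/ml, growth read with alamarBlue, run twice. MIC80 is the lowest concentration giving 80% growth reduction against untreated control.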

[3] = tested on: Candida albican ATCC MYA-576; assay: In vitro antifungal activity (MIC80), Candida albican ATCC MYA-576; details: Candida; Table 2, MYA 576; read-out: Minimal inhibitory concentration (MIC80)
How it was run: as §10

[4] = tested on: Candida albican ATCC MYA-575; assay: In vitro antifungal activity (MIC80), Candida albican ATCC MYA-575; details: Candida; Table 2, MYA 575; read-out: Minimal inhibitory concentration (MIC80)
How it was run: as §10

[5] = tested on: Candida albican ATCC 204276; assay: In vitro antifungal activity (MIC80), Candida albican ATCC 204276; details: ATCC204276, Table 2, 204276, read-out: Minimal inhibitory concentration (MIC80)
Procedure: as §1, §2, §3, §4, §5, §6, §7, §8, §9

[6] = tested on: Candida albican ATCC 96901; assay: In vitro antifungal activity (MIC80), Candida albican ATCC 96901; details: Candida, ATCC96901; Table 2, ATCC 96901; read-out: Minimal inhibitory concentration (MIC80)
How it was run: as §10

[7] = tested on: Candida albican ATCC 64124; assay: In vitro antifungal activity (MIC80), Candida albican ATCC 64124; details: Candida, ATCC64124; Table 2, 64124; read-out: Minimal inhibitory concentration (MIC80)
How it was run: as §10

[8] = tested on: Candida albican ATCC 64550; assay: In vitro antifungal activity (MIC80), Candida albican ATCC 64550; details: Candida, ATCC64550; Table 2, 64550; read-out: Minimal inhibitory concentration (MIC80)
How it was run: as §10

[9] = tested on: Candida albican ATCC 62342; assay: In vitro antifungal activity (MIC80), Candida albican ATCC 62342; details: Candida, ATCC62342; Table 2, 62342; read-out: Minimal inhibitory concentration (MIC80)
How it was run: as §10

[10] = tested on: Candida albican ATCC 90873; assay: In vitro antifungal activity (MIC80), Candida albican ATCC 90873; details: Candida, ATCC90873; Table 2, ATCC 90873; read-out: Minimal inhibitory concentration (MIC80)
How it was run: as §10

[11] = tested on: Candida albican ATCC MYA-573; assay: In vitro antifungal activity (MIC80), Candida albican ATCC MYA-573; details: Candida; Table 2, MYA 573; read-out: Minimal inhibitory concentration (MIC80)
How it was run: as §10

[12] = tested on: Candida albican ATCC MYA-1003; assay: In vitro antifungal activity (MIC80), Candida albican ATCC MYA-1003; details: Candida; Table 2, MYA 1003; read-out: Minimal inhibitory concentration (MIC80)
How it was run: as §10

SMILES | MIC80 [1] [µg/mL] | MIC80 [2] [µg/mL] | MIC80 [3] [µg/mL] | MIC80 [4] [µg/mL] | MIC80 [5] [µg/mL] | MIC80 [6] [µg/mL] | MIC80 [7] [µg/mL] | MIC80 [8] [µg/mL] | MIC80 [9] [µg/mL] | MIC80 [10] [µg/mL] | MIC80 [11] [µg/mL] | MIC80 [12] [µg/mL]
C[C@@H](N1CCN(c2nc3ccccc3o2)CC1)[C@](O)(Cn1cncn1)c1ccc(F)cc1F [Example 1, (2R,3R)-3-(4-(benzooxazol-2-yl)piperazin-1-yl)-2-(2,4-difluorophenyl)-1-(1H-1,2,4-triazol-1-yl)butan-2-ol] | 0.5 (≈ 1.1 µM) | 32 (≈ 70.4 µM) | 0.125 (≈ 0.275 µM) | 32 (≈ 70.4 µM) | 0.125 (≈ 0.275 µM) | 4 (≈ 8.8 µM) | 4 (≈ 8.8 µM) | 1 (≈ 2.2 µM) | 0.125 (≈ 0.275 µM) | 0.125 (≈ 0.275 µM) | 1 (≈ 2.2 µM) | 128 (≈ 282 µM)
C[C@@H](N1CCN(c2nc3ccccc3s2)CC1)[C@](O)(Cn1cncn1)c1ccc(F)cc1F [Example 2, (2R,3R)-3-(4-(benzothiazol-2-yl)piperazin-1-yl)-2-(2,4-difluorophenyl)-1-(1H-1,2,4-triazol-1-yl)butan-2-ol] | 0.5 (≈ 1.06 µM) | 8 (≈ 17 µM) | 0.125 (≈ 0.266 µM) | 8 (≈ 17 µM) | 0.125 (≈ 0.266 µM) | 2 (≈ 4.25 µM) | 4 (≈ 8.5 µM) | 1 (≈ 2.13 µM) | 0.5 (≈ 1.06 µM) | 0.125 (≈ 0.266 µM) | 0.25 (≈ 0.531 µM) | 128 (≈ 272 µM)
C[C@@H](N1CCN(c2nc3ccccc3n2C)CC1)[C@](O)(Cn1cncn1)c1ccc(F)cc1F [Example 3, (2R,3R)-2-(2,4-difluorophenyl)-3-(4-(1-methyl-1H-benzoimidazol-2-yl)piperazin-1-yl)-1-(1H-1,2,4-triazol-1-yl)butan-2-ol] | 1 (≈ 2.14 µM) | 16 (≈ 34.2 µM) | 0.125 (≈ 0.267 µM) | 16 (≈ 34.2 µM) | 0.125 (≈ 0.267 µM) | 4 (≈ 8.56 µM) | 16 (≈ 34.2 µM) | 2 (≈ 4.28 µM) | 8 (≈ 17.1 µM) | 0.125 (≈ 0.267 µM) | 4 (≈ 8.56 µM) | > 128
C[C@@H](N1CCN(c2ccccn2)CC1)[C@](O)(Cn1cncn1)c1ccc(F)cc1F [Example 16, (2R,3R)-2-(2,4-difluorophenyl)-3-(4-(pyridin-2-yl)piperazin-1-yl)-1-(1H-1,2,4-triazol-1-yl)butan-2-ol] | 16 (≈ 38.6 µM) | 32 (≈ 77.2 µM) | 0.125 (≈ 0.302 µM) | 32 (≈ 77.2 µM) | 0.125 (≈ 0.302 µM) | 16 (≈ 38.6 µM) | 8 (≈ 19.3 µM) | 1 (≈ 2.41 µM) | 1 (≈ 2.41 µM) | 0.125 (≈ 0.302 µM) | 0.5 (≈ 1.21 µM) | 64 (≈ 154 µM)
C[C@@H](N1CCN(c2ccc(C#N)nc2)CC1)[C@](O)(Cn1cncn1)c1ccc(F)cc1F [Example 17, 5-(4-((2R,3R)-3-(2,4-difluorophenyl)-3-hydroxy-4-(1H-1,2,4-triazol-1-yl)butan-2-yl)piperazin-1-yl)picolinonitrile] | 8 (≈ 18.2 µM) | 64 (≈ 146 µM) | 0.125 (≈ 0.284 µM) | 64 (≈ 146 µM) | 0.125 (≈ 0.284 µM) | 8 (≈ 18.2 µM) | 16 (≈ 36.4 µM) | 1 (≈ 2.28 µM) | 2 (≈ 4.55 µM) | 0.125 (≈ 0.284 µM) | 0.25 (≈ 0.569 µM) | 32 (≈ 72.8 µM)
C[C@@H](N1CCN(c2ncccn2)CC1)[C@](O)(Cn1cncn1)c1ccc(F)cc1F [Example 18, (2R,3R)-2-(2,4-difluorophenyl)-3-(4-(pyrimidin-2-yl)piperazin-1-yl)-1-(1H-1,2,4-triazol-1-yl)butan-2-ol] | 0.125 (≈ 0.301 µM) | > 128 | 0.125 (≈ 0.301 µM) | > 128 | 0.125 (≈ 0.301 µM) | 8 (≈ 19.3 µM) | 16 (≈ 38.5 µM) | 2 (≈ 4.81 µM) | 4 (≈ 9.63 µM) | 0.125 (≈ 0.301 µM) | 1 (≈ 2.41 µM) | > 128
C[C@@H](N1CCN(c2ccc3ccccc3n2)CC1)[C@](O)(Cn1cncn1)c1ccc(F)cc1F [Example 19, (2R,3R)-2-(2,4-difluorophenyl)-3-(4-(quinolin-2-yl)piperazin-1-yl)-1-(1H-1,2,4-triazol-1-yl)butan-2-ol] | 0.125 (≈ 0.269 µM) | > 128 | 0.125 (≈ 0.269 µM) | > 128 | 0.125 (≈ 0.269 µM) | 0.5 (≈ 1.08 µM) | 4 (≈ 8.61 µM) | 0.5 (≈ 1.08 µM) | 0.25 (≈ 0.538 µM) | 0.125 (≈ 0.269 µM) | 0.25 (≈ 0.538 µM) | > 128
